According to patent US5595883A, “Method of diagnosing alzheimer's disease by measuring acetylcholinesterase activity in ocular fluid” (priority 1990, dated 1997):

Tested on: AChE
Experiment: Cholinesterase activity of human ocular fluid (micro Ellman assay, acetylthiocholine substrate), inhibition by BW 284c51
Assay type: biochemical
Details: BW 284c51 1.5 μM, acetylthiocholine 1.0 mM, pH 7.0, 25° C.
Procedure: Cholinesterase activities were measured by a microversion of the method of Ellman et al, (1961) supra, using microtitre plates. Acetylthiocholine was used as substrate at a concentration of 1.0 mM, which is optimal for AChE, but suboptimal for BuChE. The assay was performed in 0.05M Na/K phosphate buffer, pH 7.0 at 25° C., containing 3 mM 5,5'-dithio-bis-(2-nitrobenzoate), in a total volume of 100 μL. The rate of hydrolysis of acetylthiocholine was monitored by measurement of absorbances at 410 nm, using a Titertek multiscan microplate reader. A calibration curve was constructed using purified electric eel AChE (Sigma). AChE and BuChE activities were distinguished by use of the specific AChE inhibitor 1,5-bis-(-4-allyldimethylammoniumphenyl)pentan-3-one dibromide (BW 284c51) (1.5 μM).

With `C=CC[N+](C)(C)c1ccc(CCC(=O)CCc2ccc([N+](C)(C)CC=C)cc2)cc1` [BW 284c51, 1,5-bis-(-4-allyldimethylammoniumphenyl)pentan-3-one dibromide] the “inhibition of cholinesterase activity of ocular fluid” value was “Most of this activity was inhibited”.
